Values of other authors as cited in US7943796B2, “Lubricating oil additive and lubricating oil composition containing same” (Chevron Oronise Company LLC, priority 2008, dated 2011).

System: estrogen-inducible strain of yeast
Conditions: among alkylphenols, compared with 17β-estradiol

CC(C)(C)CC(C)(C)c1ccc(O)cc1 [4-tert-octylphenol, 4-(1,1,3,3-Tetramethyl-butyl)-phenol]
estrogenic activity: highest activity
